Measurements reported in ChEMBL document CHEMBL1201862, “PubChem BioAssay data set” (2004).
The source made the active and inactive calls.

Columns and labels:
[1] = target: Bifunctional protein GlmU (Mycobacterium tuberculosis, UniProt P9WMN3); experiment: Inhibitors of Mycobacterial Glucosamine-1-phosphate acetyl transferase (GlmU). Secondary screen.; parameters: species or system Mycobacterium tuberculosis H37Rv
Caspase-6 = target: T1, Caspase-6 (Homo sapiens, UniProt P55212); experiment: inhibition of CASP6 peptide cleavage – biochemical, VEID-R110 fluorescence, cherry-pick, dose response (AID 720632)
T1 sequence (P55212 whole entry): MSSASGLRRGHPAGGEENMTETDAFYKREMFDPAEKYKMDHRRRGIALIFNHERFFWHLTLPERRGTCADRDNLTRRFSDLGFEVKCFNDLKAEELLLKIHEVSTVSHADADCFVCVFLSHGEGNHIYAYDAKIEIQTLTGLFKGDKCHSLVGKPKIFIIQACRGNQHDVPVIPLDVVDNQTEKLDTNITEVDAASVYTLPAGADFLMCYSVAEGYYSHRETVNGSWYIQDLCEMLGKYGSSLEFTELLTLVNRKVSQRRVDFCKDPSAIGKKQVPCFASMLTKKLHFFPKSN

[2] = target: T2, Histone-lysine N-methyltransferase NSD2 (Homo sapiens, UniProt O96028); format: biochemical
T2 sequence (O96028 whole entry): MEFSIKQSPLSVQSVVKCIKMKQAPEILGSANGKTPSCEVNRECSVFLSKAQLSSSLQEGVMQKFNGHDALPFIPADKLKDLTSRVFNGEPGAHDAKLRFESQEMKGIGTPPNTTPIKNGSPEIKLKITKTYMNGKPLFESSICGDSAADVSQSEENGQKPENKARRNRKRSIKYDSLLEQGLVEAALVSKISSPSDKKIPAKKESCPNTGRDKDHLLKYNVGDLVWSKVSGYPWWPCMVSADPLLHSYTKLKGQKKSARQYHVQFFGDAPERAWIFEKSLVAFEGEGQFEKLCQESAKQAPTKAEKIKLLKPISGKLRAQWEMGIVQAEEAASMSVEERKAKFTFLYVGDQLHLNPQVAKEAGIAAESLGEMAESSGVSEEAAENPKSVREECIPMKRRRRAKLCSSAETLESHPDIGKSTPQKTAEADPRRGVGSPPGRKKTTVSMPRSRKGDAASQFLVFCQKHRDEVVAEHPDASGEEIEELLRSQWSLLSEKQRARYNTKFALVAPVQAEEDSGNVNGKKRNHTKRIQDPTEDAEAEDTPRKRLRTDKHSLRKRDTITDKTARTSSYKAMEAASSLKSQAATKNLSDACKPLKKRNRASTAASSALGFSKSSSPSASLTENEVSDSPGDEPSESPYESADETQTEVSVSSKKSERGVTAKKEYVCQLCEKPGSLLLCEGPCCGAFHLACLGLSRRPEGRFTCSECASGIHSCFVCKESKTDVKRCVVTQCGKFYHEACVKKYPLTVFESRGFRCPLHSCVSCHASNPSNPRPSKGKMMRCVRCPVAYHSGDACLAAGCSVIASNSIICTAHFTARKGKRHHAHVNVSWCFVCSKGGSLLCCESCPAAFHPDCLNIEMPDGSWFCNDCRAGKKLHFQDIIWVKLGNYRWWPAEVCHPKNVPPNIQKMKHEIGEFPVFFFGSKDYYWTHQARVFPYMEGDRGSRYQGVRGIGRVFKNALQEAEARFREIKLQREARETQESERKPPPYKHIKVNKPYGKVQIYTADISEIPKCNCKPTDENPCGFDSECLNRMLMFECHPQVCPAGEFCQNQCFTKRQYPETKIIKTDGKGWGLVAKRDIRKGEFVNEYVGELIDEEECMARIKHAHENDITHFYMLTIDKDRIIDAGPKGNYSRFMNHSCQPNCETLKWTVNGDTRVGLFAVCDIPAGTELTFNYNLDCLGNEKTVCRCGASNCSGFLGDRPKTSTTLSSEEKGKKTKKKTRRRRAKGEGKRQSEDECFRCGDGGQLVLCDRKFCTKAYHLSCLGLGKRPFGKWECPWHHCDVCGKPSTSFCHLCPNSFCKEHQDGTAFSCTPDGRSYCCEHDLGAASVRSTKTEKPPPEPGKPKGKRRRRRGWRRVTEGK

Large T antigen = Large T antigen (Simian virus 40, UniProt P03070); format: functional, Betapolyomavirus macacae;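 further: Confirmatory-stage PubChem screen for compounds that inhibit SV40 T antigen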
Transthyretin = Transthyretin (Homo sapiens, UniProt P02766); experiment: Luminescence-based cell-based high throughput dose response assay to identify activators of Transthyretin (TTR) transcription.; format: functional
[3] = target: RNA-editing ligase 1, mitochondrial (Trypanosoma brucei brucei, UniProt P86926); experiment: inhibition of trypanosome RNA editing ligase – biochemical, fluorescence, Trypanosoma brucei, dose response (AID 1117295); format: functional
[4] = target: T3, Low molecular weight phosphotyrosine protein phosphatase (Homo sapiens, UniProt P24666); experiment: inhibition of human LMPTP enzyme activity – biochemical, absorbance, pNPP substrate, LMPTP-A isoform, set 2, orthogonal assay, dose response (AID 743308); format: functional
T3 sequence (P24666 whole entry): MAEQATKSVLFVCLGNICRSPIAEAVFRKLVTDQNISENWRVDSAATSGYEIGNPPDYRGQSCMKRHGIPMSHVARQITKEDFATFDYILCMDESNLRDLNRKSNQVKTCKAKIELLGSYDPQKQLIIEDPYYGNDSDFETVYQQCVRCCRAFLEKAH

[5] = target: T3, Low molecular weight phosphotyrosine protein phosphatase; experiment: inhibition of LMPTP-A enzymatic activity – biochemical, OMFP substrate, fluorescence intensity, set 2, dose response (AID 743307); format: functional
[6] = target: G-protein coupled receptor 183 (Homo sapiens, UniProt P32249); experiment: SAR confirmation of small molecule antagonists of the EBI2 receptor via a luminescent beta-arrestin assa.; format: functional
[7] = target: Muscarinic acetylcholine receptor M5 (Rattus norvegicus, UniProt P08911); experiment: Discovery of Novel Antagonists of Muscarinic Receptor M5: Counterscreen against RAT M5.; format: functional
[8] = target: Muscarinic acetylcholine receptor M5 (Homo sapiens, UniProt P08912); experiment: inhibition of ACh-evoked human M5 signalling – cell-based, CHO-K1 hM5, Fluo-4 calcium flux, ACh EC80, dose response (AID 743110); format: functional
Sequence of Muscarinic acetylcholine receptor M5 (Homo sapiens, UniProt P08912) (P08912 whole entry): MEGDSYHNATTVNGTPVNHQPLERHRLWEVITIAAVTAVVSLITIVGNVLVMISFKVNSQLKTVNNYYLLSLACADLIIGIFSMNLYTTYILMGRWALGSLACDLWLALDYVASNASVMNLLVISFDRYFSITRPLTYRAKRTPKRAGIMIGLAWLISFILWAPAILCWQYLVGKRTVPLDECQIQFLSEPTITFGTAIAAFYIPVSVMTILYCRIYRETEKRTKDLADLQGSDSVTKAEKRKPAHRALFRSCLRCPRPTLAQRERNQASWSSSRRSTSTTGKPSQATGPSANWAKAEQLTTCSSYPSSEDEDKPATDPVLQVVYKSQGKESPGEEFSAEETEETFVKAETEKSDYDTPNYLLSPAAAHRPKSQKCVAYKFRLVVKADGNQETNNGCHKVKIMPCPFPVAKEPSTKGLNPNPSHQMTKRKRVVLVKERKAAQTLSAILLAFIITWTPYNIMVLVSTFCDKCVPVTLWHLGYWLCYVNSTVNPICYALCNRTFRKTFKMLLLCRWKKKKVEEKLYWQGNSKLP

Sequence of RNA-editing ligase 1, mitochondrial (P86926 whole entry, canonical isoform): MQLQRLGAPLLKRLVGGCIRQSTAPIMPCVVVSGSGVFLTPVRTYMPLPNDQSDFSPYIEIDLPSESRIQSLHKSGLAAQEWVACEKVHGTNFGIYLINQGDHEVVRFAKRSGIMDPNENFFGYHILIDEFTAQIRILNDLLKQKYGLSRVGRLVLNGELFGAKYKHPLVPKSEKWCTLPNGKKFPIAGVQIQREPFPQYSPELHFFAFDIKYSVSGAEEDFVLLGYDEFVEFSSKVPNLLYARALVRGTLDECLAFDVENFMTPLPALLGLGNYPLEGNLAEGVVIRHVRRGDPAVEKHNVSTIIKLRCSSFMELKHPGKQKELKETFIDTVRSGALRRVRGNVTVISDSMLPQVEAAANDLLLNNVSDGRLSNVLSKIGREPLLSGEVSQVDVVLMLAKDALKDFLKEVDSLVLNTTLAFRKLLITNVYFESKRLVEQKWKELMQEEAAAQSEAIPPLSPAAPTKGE
Sequence of G-protein coupled receptor 183 (P32249 whole entry): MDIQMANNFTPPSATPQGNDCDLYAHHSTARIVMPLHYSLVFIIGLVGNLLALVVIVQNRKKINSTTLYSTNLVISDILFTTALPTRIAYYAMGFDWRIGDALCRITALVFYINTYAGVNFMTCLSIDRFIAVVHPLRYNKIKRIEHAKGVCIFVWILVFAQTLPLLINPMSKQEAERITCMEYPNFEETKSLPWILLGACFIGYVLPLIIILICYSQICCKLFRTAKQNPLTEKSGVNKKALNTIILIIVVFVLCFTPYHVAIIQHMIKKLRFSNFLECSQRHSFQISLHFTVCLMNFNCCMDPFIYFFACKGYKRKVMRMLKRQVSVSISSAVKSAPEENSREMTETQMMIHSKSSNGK
Sequence of Large T antigen (P03070 whole entry): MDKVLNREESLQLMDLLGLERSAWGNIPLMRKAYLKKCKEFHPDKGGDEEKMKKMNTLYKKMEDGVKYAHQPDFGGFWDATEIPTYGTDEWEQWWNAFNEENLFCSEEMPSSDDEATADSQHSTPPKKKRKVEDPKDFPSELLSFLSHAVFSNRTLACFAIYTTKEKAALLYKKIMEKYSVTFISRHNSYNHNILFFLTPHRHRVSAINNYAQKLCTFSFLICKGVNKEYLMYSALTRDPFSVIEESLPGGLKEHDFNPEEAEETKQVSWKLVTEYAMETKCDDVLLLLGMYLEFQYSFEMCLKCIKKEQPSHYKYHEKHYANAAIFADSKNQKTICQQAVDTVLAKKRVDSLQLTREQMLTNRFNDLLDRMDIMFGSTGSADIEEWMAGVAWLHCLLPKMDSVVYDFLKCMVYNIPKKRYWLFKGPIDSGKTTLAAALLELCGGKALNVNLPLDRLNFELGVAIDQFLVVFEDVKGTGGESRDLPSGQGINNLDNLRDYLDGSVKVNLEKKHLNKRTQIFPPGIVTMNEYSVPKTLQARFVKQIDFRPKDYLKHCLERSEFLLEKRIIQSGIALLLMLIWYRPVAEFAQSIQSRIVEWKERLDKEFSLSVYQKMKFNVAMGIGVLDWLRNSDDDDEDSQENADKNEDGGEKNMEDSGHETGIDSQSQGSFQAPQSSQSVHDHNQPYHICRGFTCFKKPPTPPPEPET
Sequence of Muscarinic acetylcholine receptor M5 (Rattus norvegicus, UniProt P08911) (P08911 whole entry): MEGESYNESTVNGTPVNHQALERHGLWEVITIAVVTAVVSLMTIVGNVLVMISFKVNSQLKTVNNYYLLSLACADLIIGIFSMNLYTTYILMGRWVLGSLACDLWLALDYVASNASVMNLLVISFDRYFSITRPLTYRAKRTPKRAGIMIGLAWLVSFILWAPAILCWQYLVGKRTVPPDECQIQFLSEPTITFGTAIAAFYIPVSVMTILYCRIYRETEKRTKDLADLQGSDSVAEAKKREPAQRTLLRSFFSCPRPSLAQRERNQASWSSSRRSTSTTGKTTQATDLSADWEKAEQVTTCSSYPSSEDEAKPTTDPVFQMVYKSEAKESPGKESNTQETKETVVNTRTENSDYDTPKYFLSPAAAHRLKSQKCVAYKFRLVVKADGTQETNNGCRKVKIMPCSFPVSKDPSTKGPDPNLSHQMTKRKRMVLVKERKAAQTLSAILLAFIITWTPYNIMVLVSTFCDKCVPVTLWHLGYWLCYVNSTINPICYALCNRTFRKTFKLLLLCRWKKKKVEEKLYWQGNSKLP
Sequence of Bifunctional protein GlmU (P9WMN3 whole entry): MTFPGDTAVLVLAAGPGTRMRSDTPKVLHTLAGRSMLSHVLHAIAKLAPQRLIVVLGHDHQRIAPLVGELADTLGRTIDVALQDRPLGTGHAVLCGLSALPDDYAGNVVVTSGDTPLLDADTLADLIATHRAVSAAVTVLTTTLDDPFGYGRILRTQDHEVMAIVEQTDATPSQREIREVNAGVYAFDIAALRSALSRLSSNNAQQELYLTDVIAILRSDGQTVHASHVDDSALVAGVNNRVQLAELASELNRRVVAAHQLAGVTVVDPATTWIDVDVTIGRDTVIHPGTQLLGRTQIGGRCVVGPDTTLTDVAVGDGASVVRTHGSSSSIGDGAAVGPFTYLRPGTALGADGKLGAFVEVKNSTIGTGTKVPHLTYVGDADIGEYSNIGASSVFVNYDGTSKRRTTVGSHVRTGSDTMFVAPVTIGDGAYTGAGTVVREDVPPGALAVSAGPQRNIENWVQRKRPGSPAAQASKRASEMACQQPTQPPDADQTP

Cc1c(Br)c(=O)oc2c(Br)c(O)c(O)cc12
IC50 [1]: 55.4 µM (active) | AC50 (Caspase-6): 19.5 µM (active) | AC50 [2]: 10.3 µM (active) | IC50 (Large T antigen): 41.2 µM (active)

Cn1ncc(Br)c1C(=O)N1CCc2ccccc21
EC50 (Transthyretin): > 167 µM (inactive)

COC(=O)C1=C(C)N(Cc2cccc(C(F)(F)F)c2)C(NCc2ccc3c(c2)OCO3)=NC1c1ccccc1C(F)(F)F (stereo unspecified)
IC50 [3]: > 96.6 µM (inactive)

c1ccc(-c2nc(NCCCN3CCOCC3)c3ccccc3n2)cc1
IC50 [4]: 48.8 µM (inactive) | IC50 [5]: 22.5 µM (inactive)

O=C(/C=C/c1ccc(F)cc1)N1CCN(S(=O)(=O)c2cccs2)CC1
IC50 [6]: 0.081 µM (active)

CCN(C(=O)c1cc(COc2cccc(C(C)=O)c2)on1)C(C)c1ccccn1 (stereo unspecified)
IC50 [7]: 6.84 µM (active) | IC50 [8]: 5.55 µM (active)
